In general, IC50 refers to the point on the concentration scale where inhibition reaches its midpoint. Usually inhibition stands for the change of the read-out against control, counted positive when it falls. Broadly, the Ki is a measure of affinity in units of concentration, obtained from inhibition or displacement. As a reminder, the pIC50 is −log10 of the IC50, conventionally taken in molar units.

The values below come from ChEMBL document CHEMBL4020731, “Dimeric isoxazolyl-1,4-dihydropyridines have enhanced binding at the multi-drug resistance transporter” (Bioorg Med Chem, 2017).

The target in data set [1] is Voltage-gated L-type calcium channel (Homo sapiens, UniProt Q13936+Q13698+Q01668+O60840). Kind of data set: Displacement of [3H]PN-200110 from voltage-dependent L-type calcium channel (unknown origin) by scintillation counting method. Background: In a radioligand displacement assay an active substance lowers the binding of a labelled ligand.
Data set [2] addresses T1, ATP-dependent translocase ABCB1 (Homo sapiens, UniProt P08183). Kind of data set: Inhibition of MDR-1 in human Caco-2 cells after 30 mins by calcein-AM dye based fluorescence assay. The class given is cell-based.
For data set [3], the target named is MDR-1 (P-glycoprotein, ABCB1) (Homo sapiens, UniProt P08183). Kind of data set: (§1) Inhibition of MDR-1 in human Caco-2 cells at 10 uM after 30 mins by calcein-AM dye based fluorescence assay relative to cyclosporin. The class given is cell-based. To be noted: Caco-2 cells, probe calcein-AM.
Data set [4] deals with Metabotropic glutamate receptor 5 (Rattus norvegicus) (UniProt P31424). Kind of data set: Displacement of [3H]MPEP from rat brain mGluR5 expressed in CHO cells by scintillation counting method. The class given is cell-based.
Data set [5] deals with T1, ATP-dependent translocase ABCB1. The data set is described as §1. The data set is classed as cell-based. As to conditions: 0.5 h, 10 µM.

Metabotropic glutamate receptor 5 (Rattus norvegicus), sequence (P31424 21-1203 limits assumed): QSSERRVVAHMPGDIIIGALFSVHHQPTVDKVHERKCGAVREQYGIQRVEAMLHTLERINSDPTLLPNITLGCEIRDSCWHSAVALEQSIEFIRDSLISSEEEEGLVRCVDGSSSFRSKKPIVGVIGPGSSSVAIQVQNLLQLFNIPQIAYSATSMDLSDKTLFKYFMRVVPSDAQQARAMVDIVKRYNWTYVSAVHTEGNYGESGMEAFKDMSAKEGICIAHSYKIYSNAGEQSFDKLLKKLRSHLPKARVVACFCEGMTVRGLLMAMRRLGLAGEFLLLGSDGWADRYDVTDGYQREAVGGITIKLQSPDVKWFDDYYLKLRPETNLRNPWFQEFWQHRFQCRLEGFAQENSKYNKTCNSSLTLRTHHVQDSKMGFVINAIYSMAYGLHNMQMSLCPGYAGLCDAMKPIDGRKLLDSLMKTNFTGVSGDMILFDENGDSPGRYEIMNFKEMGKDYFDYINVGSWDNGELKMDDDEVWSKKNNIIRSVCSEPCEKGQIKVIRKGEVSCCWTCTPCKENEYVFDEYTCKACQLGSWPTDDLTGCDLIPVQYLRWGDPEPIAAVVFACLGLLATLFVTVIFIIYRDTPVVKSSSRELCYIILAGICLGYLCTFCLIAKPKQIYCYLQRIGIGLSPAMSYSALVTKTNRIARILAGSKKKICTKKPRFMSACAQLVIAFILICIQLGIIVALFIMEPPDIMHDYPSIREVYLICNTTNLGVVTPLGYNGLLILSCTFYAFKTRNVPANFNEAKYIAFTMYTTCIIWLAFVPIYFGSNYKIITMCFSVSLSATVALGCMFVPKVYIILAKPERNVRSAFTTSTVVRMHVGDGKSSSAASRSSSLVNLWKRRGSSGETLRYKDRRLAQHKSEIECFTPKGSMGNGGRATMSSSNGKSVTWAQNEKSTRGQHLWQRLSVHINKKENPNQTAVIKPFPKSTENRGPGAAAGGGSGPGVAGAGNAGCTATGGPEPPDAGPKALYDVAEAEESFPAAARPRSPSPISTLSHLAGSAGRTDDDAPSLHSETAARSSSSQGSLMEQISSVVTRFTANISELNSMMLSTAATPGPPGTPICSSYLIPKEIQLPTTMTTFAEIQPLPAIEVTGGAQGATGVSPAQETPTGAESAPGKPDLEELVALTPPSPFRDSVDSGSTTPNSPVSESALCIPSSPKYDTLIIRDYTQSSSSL
T1 sequence (P08183 whole entry): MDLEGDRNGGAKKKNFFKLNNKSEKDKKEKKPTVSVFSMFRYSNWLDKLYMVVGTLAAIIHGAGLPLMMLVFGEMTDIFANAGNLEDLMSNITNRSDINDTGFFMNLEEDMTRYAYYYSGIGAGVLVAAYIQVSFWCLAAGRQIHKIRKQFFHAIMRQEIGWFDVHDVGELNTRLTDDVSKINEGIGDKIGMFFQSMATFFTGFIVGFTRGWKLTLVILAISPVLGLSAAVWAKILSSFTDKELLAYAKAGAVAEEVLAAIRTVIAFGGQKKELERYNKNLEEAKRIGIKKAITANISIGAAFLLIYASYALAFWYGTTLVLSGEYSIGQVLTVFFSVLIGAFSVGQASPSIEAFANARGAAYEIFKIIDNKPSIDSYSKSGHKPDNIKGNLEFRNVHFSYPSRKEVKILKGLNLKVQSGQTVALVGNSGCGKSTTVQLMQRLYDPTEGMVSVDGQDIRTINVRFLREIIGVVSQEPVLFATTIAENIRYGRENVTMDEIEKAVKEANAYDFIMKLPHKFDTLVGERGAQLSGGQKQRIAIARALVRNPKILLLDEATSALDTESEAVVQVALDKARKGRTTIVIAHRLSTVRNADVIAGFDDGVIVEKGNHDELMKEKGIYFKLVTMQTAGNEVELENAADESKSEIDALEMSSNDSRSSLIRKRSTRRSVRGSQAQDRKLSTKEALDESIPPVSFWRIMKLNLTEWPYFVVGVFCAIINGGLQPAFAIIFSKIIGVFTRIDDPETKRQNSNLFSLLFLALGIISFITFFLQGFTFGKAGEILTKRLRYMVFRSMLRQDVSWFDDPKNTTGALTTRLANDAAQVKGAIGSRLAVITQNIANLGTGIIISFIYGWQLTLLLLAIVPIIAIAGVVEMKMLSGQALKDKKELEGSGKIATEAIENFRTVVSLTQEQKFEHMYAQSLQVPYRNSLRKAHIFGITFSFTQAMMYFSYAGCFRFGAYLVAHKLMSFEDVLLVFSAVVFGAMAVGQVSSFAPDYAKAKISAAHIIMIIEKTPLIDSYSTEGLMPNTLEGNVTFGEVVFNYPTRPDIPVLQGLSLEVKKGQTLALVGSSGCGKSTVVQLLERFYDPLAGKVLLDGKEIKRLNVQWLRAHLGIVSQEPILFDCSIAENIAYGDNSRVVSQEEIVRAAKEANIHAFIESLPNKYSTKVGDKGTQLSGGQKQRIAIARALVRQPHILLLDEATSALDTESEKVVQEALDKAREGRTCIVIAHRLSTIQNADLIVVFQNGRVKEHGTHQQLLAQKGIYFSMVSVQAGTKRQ
MDR-1 (P-glycoprotein, ABCB1), sequence (P08183 whole entry): as above

Turning to `CCOC(=O)C1=C(C)NC(C)=C(C(=O)OCc2cn(CCOCCOCCOCCn3cc(COC(=O)C4=C(C)NC(C)=C(C(=O)OCC)C4c4c(-c5ccc(Br)cc5)noc4C)nn3)nn2)C1c1c(-c2ccc(Br)cc2)noc1C` (stereo not given), the values for the concentration for half-maximal inhibition (IC50) in data set [1] and in data set [2] were 516 nM and 3230 nM, respectively. Also, the inhibition at 0.5 h, 10 µM in data set [3] is 11.6%. Also, the Ki in data set [4] was 546 nM.
In the case of `CCOC(=O)C1=C(C)NC(C)=C(C(=O)OCc2cn(CCOCCOCCOCCOCCOCCn3cc(COC(=O)C4=C(C)NC(C)=C(C(=O)OCC)C4c4c(-c5ccc(Br)cc5)noc4C)nn3)nn2)C1c1c(-c2ccc(Br)cc2)noc1C` (stereo not given), the IC50 was 2706 nM in data set [1] and 1390 nM in data set [2]. In addition, the “inhibition (INH)” value in data set [5] was 172.6%. The Ki in data set [4] amounted to 193 nM.
As to `CCOC(=O)C1=C(C)NC(C)=C(C(=O)OCc2cn(CCOCCOCCOCCOCCOCCn3cc(COC(=O)C4=C(C)NC(C)=C(C(=O)OCC)C4c4c(-c5ccccc5)noc4C)nn3)nn2)C1c1c(-c2ccccc2)noc1C` (stereo not given), the 50% inhibitory concentration (IC50) in data set [1] and in data set [2] was > 10000 nM in each case. Also, the inhibition at 0.5 h, 10 µM in data set [3] was 20.4%. In addition, the Ki in data set [4] was > 10000 nM.
Consider `CCOC(=O)C1=C(C)NC(C)=C(C(=O)OCC)C1c1c(-c2cccc(Br)c2)noc1C`, for which the results for the half-maximal inhibitory concentration (IC50) in data set [1] and in data set [2] were 208 nM and 510 nM, respectively. Also, the inhibition at 0.5 h, 10 µM in data set [3] was 102%. Also, the Ki in data set [4] was > 10000 nM.
Turning to `CCOC(=O)C1=C(C)NC(C)=C(C(=O)OCc2cn(CCOCCOCCOCCOCCOCCn3cc(COC(=O)C4=C(C)NC(C)=C(C(=O)OCC)C4c4c(-c5cccc(Br)c5)noc4C)nn3)nn2)C1c1c(-c2cccc(Br)c2)noc1C` (stereo not given), the 50% inhibitory concentration (IC50) was 3766 nM in data set [1] and 1300 nM in data set [2]. For the same compound, the “inhibition (INH)” value in data set [5] is given as 150.8%. Moreover, in data set [4], the Ki was found to be 8640 nM.
Take `CCOC(=O)C1=C(C)NC(C)=C(C(=O)OCC)C1c1c(-c2ccc(Br)cc2)noc1C`: in data set [1], the IC50 worked out at 36 nM and the pIC50 worked out at 7.44. Moreover, the half-maximal inhibitory concentration (IC50) in data set [2] was 3100 nM. The inhibition at 0.5 h, 10 µM in data set [3] was 58.4%. Further, the Ki in data set [4] is > 10000 nM.
Regarding `CCOC(=O)C1=C(C)NC(C)=C(C(=O)OCc2cn(CCc3ccccc3)nn2)C1c1c(-c2ccc(Br)cc2)noc1C` (stereo not given), the concentration for half-maximal inhibition (IC50) was 127 nM in data set [1] and 1640 nM in data set [2]. The inhibition at 0.5 h, 10 µM in data set [3] was 108%. Moreover, in data set [4], the inhibitory constant (Ki) amounted to 1970 nM.
For `CCOC(=O)C1=C(C)NC(C)=C(C(=O)OCc2cn(CCOCCOCCn3cc(COC(=O)C4=C(C)NC(C)=C(C(=O)OCC)C4c4c(-c5ccc(Br)cc5)noc4C)nn3)nn2)C1c1c(-c2ccc(Br)cc2)noc1C` (stereo not given), in that order: 603 nM, 1450 nM, 41.9% and 933 nM.
`CCOC(=O)C1=C(C)NC(C)=C(C(=O)OCC)C1c1c(-c2ccccc2Br)noc1C`: the IC50 was 909 nM in data set [1] and > 10000 nM in data set [2]. Moreover, the inhibition at 0.5 h, 10 µM in data set [3] is -12%. In data set [4], this compound yielded a Ki of 1520 nM.
Turning to `CCOC(=O)c1c(C)nc(C)c(C(=O)OCC)c1-c1c(-c2ccccc2)noc1C`, the IC50 in data set [1] and in data set [2] was > 10000 nM throughout. In addition, the inhibition at 0.5 h, 10 µM in data set [3] is 36.9%. The Ki in data set [4] is > 10000 nM.
In the case of `CCOC(=O)C1=C(C)NC(C)=C(C(=O)OCc2cn(CCOCCOCCOCCOCCOCCn3cc(COC(=O)C4=C(C)NC(C)=C(C(=O)OCC)C4c4c(-c5ccccc5Br)noc4C)nn3)nn2)C1c1c(-c2ccccc2Br)noc1C` (stereo not given), the IC50 in data set [1] is > 10000 nM; in data set [2], 2860 nM. The inhibition at 0.5 h, 10 µM in data set [3] was 17.7%. Moreover, in data set [4], the Ki was determined as 4860 nM.
